# According to PMC10393279, “Can BioSAXS detect ultrastructural changes of antifungal compounds in Candida albicans?–an exploratory study” (Frontiers in Pharmacology, 2023):
# Read-outs that look alike come from different tables or passages of the source. No end group written: not given here.
# Legend:
# C. albicans [1] = assay: BioSAXS ultrastructural changes, principal component analysis of scattering curves; assay type: cell-based, Candida albicans; settings: 2xMIC, 40 min
# Procedure: A detailed description of the sample preparation for BioSAXS, the BioSAXS measurement and consequently the data evaluation methods can be found in the open-source publication by [Von Gundlach et al. (2019)]. Briefly, an aliquot of an overnight culture of a clinical isolate of C. albicans was diluted in Mueller-Hinton broth (MHb) and incubated for 2.5 h at 30°C on a shaker (225 rpm) to achieve log phase growth. The C. albicans culture was adjusted to have 1.2 × 10^6 CFU/mL and aliquoted. The aliquots were then mixed with either sterile water or antifungal solution (2xMIC) to provide 6 × 10^5 CFU/mL aliquots. Those were further incubated for 40 min at 30°C at 225 rpm. All aliquots were then centrifuged at 10,000 rpm and washed 3 times in ml 0.1 M PIPES [piperazine-N,N′-bis(2-ethanesulfonic acid)] buffer, pH 7.0. After washing, the pellet was resuspended in 1 mL of 2.5% glutaraldehyde v/v in PIPES buffer and fixated for 1 h at room temperature at 225 rpm. Consequently, the samples were washed 3 times with PBS buffer and resuspended in 100 µL of PBS and stored at 5°C.
# The SAXS measurements were performed on the P12 BioSAXS beamline, EMBL (DESY, Hamburg), using a double crystal Si (111) monochromator. An energy of 10 keV with a 10^13 s^−1 photon flux was used. 30 μL of each sample was injected into the measuring chamber by an automatic sample robot (Arinax, BioSAXS), the focus of the X-ray beam was 0.2 × 0.12 mm. The scattering signal was recorded with a Pilatus 2 M detector (Dectris, Switzerland). For each sample, 20 measurements were made with 0.05 s exposure. Before and after each measurement the background was measured and automatically subtracted from the SAXS curves. Data analysis and evaluation were done using the open-source software SciXMiner (“Peptide Extension”) ([Mikut, 2010]; [Mikut et al., 2017]). To determine differences in the scattering curves between treated and untreated samples as well as between the different treatments a principal component analysis (PCA) was applied to the scattering curves. The data are measurements of about 100,000 cells that were measured 20 times to obtain the scattering curves. SAXS curves were averaged and the standard deviation was used as an error bar. The PCA analysis was carried out in the frequency range between 0.05–0.4 nm^−1, and errors were propagated from the single SAXS curves (see Supplementary Figure S1).
# C. albicans [2] = assay: microbe, parasite or virus in culture; assay type: cell-based, Candida albicans; settings: broth microdilution, 30°C
# Procedure: In this project, we used a clinical isolate of C. albicans obtained from Tim Planche (St. George’s, University of London).
# Mueller-Hinton broth (MHb) (Merck, Life Science UK Limited, Dorset, UK) was prepared to concur with the manufacturer’s directions and supplemented with 2% glucose to grow C. albicans. Liquid cultures were incubated at 30°C for 18–20 h on a shaker, and culture on solid media was incubated for 18–24 h at 30°C.
# When it comes to determining the antimicrobial activity of antimicrobial peptides (AMPs) there are unfortunately many different approaches reported. Many AMPs are negatively affected by positively charged ions and other components of growth media, therefore Mueller-Hinton broth (MHb) is frequently used since it supports the growth of many organisms and seems to interfere little with the activity of most AMPs. The […] of Flucytosine and antifungal peptides were determined using a protocol (option E) of the highly cited publication by [Wiegand et al. (2008)] optimized for the work with antimicrobial peptides. This protocol uses MHb (0.2% beef extract, 1.75% casein hydrolysate). To adopt that media for the growth of yeast 2% glucose was added. For comparison, YPD complex medium (1% yeast extract, 2% peptone, 2% dextrose) is often used for the growth of yeast. Where this media provides the best activity for antimicrobial peptides the results should be carefully used when comparing MIC values to other antifungals measured in different growth media. A broth microdilution assay was applied using 6 × 10^5 CFU/mL at 30°C. MICs were determined by the unaided eye, as the concentration in which no growth was observed.
# erythrocytes = test system: erythrocytes; design: method as in 3 sources, one per row (each row's own in cited_ref): ref Cerovsky et al., 2009 ||| ref Cao et al., 2012; Almaaytah and Albalas, 2014 ||| ref Hirai et al., 1981; settings: cited from earlier work
# human erythrocytes = settings: no method in this paper, ref Grimsey et al., 2020; cited from earlier work
# sheep erythrocytes = settings: ref Andreu et al., 1992, Edlund et al., 1998; cited from earlier work
# [3] = 6 × 10^5 CFU/mL, PCA range 0.05–0.4 nm^−1
# [4] = Mueller-Hinton broth + 2% glucose, 6 × 10^5 CFU/ml C. albicans clinical isolate, read by unaided eye, n = 3, modal values
molecule,measurement,setting,value
Nc1[nH]c(=O)ncc1F [Flucytosine],"PC1 value, rank in the set of six antifungal compounds",C. albicans [1],second-lowest
same,PC2 value compared to the untreated cells (direction),C. albicans [1],increased
same,"PC2 value, rank in the set of six antifungal compounds",C. albicans [1],highest
same,"ΔPC1 (treated versus untreated), sign",C. albicans [1],positive
same,increase of PC2 versus untreated sample,C. albicans [1]; [3],about 1 unit
same,reduction of PC1 versus untreated sample,C. albicans [1]; [3],about 6 units
same,MIC,"C. albicans [2]; Candida albicans, MHb + 2% glucose, 6 × 10^5 CFU/mL C. albicans clinical isolate, read-out: MIC",8 µg/mL
FIGAIARLLSKIFGKR-NH2 [Bmkn2],MIC,C. albicans [2]; [4],18 µM
same,HC50 (hemolysis),"erythrocytes; ref Cao et al., 2012, Almaaytah and Albalas, 2014",17.13 µg/mL
INLKAIAALAKKLL-NH2 [Mastoparan M],MIC,C. albicans [2]; [4],22 µM
same,hemolytic activity,"erythrocytes; ref Hirai et al., 1981",very little
KRRVRWIIW-NH2 [OptP7],MIC,C. albicans [2]; [4],24 µM
same,HC50 (hemolysis),human erythrocytes,> 250 µg/mL
KWKLFKKIGAVLKVL-NH2,MIC,C. albicans [2]; [4],18 µM
same,hemolytic activity,sheep erythrocytes,> 500 µg/mL
VNWKKILGKIIKVVK-NH2 [Lasioglossin LL-III],MIC,C. albicans [2]; [4],36 µM
same,hemolytic and cytotoxic activity,"erythrocytes; ref Cerovsky et al., 2009",low
